Holding throughout (experiment): DTP human tumour cell line panel, 48 h
Test [1] deals with BT-549 breast.
Test [2] concerns HCC-2998 colon.
Test [3] relates to HCT-116 colon.
The test system of test [4] is MDA-MB-435.
The test system of test [5] is NCI-H23 lung.
Test [6] concerns OVCAR-3 ovarian.
The test system of test [7] is SK-MEL-2 melanoma.
In test [8] the test system is SNB-19 CNS.
The test system of test [9] is SR leukemia.
In test [10] the test system is U251 CNS.

The text below walks through data of PubChem BioAssay (NCI).

Each structure is given as a SMILES string.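 Cultured in 96-well plates, cells were exposed to test compound for 48 hours across five concentrations. TGI is the concentration that stops growth completely.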

For the compound `c1ccc2c[n+](Cc3ccnc4ccccc34)ccc2c1`, the total growth inhibition concentration (TGI) in [1], in test [2], in test [3], in [4], in [5] and in test [6] was more than 100 µM in each case. Further, the TGI in [7], in [8], in test [9] and in test [10] was more than 100 µM in each case.
Turning to `O=C(O)COc1cccc2ccccc(=O)c12`, the TGI in test [1], in test [2], in test [3], in test [4], in [5] and in test [6] was more than 100 µM each time. The TGI in test [7], in [8], in test [9] and in test [10] was more than 100 µM in each case.
Take `CC(=O)Oc1ccc(C2SCc3nc4ccccc4n32)cc1` (stereo not given): the TGI in [1] is more than 53.3 µM; in test [2], 69 µM; in test [3], more than 100 µM; in test [4] it was 59.4 µM; in test [5], more than 100 µM; in [6], more than 100 µM. The TGI is 80.2 µM in test [7], more than 100 µM in [8], more than 73 µM in [9] and more than 100 µM in test [10].
As for `C[C@H](OC(=O)/C=C/c1ccc(O)c(O)c1)[C@H](C)OC(=O)/C=C/c1ccc(O)c(O)c1`, the TGI was 24.1 µM in test [1]; 33.4 µM in test [2]; 23.3 µM in test [3]; 77.3 µM in test [4]; 18 µM in test [5]; 14.8 µM in test [6]. The TGI in test [7] was 50.3 µM; in test [8], 25.6 µM; in test [9], more than 100 µM; in test [10], more than 100 µM.
As for `CCCCCC(=O)OC[n+]1ccc(-c2c(COC(=O)NC(C)C)c(COC(=O)NC(C)C)c3n2CCC3)cc1`, the TGI in test [1], in test [2], in test [3], in test [4], in [5] and in test [6] was more than 100 µM in each case. The TGI in test [7] was more than 100 µM; in test [8], more than 100 µM; in [9], more than 80.9 µM; in test [10], more than 100 µM.
As for `CCOC(=O)C(C(=O)OCC)C(=S)NC1OC(COC(C)=O)C(OC(C)=O)C(OC(C)=O)C1OC(C)=O` (stereo not given), the TGI in [1], in [2], in [3], in [4], in test [5] and in test [6] was more than 100 µM throughout. Also, the TGI in test [7], in test [8], in test [9] and in test [10] was more than 100 µM throughout.
`O=C1N(c2ccccc2)N=C2c3ccncc3C3=NN(c4ccccc4)C(=O)C123` (stereo not given): the TGI in test [1] was more than 100 µM; in [2], more than 88 µM; in test [3] it was more than 100 µM; in test [4], more than 100 µM; in test [5], more than 100 µM; in test [6], more than 100 µM. Besides, the total growth inhibition concentration (TGI) in test [7], in [8], in test [9] and in [10] was more than 100 µM throughout.
For the compound `Cc1csc(CP(=O)(OC(C)C)OC(C)C)n1`, the TGI in test [1], in test [2], in test [3], in test [4], in test [5] and in test [6] was more than 100 µM each time. In addition, the TGI in test [7], in [8], in test [9] and in [10] was more than 100 µM in each case.
As to `COc1ccc(/C=C/C(=O)N[C@@H]2C(=O)N3[C@@H]2SC(C)(C)[C@@H]3C(=O)O)cc1OC`, the TGI in test [1], in test [2], in [3], in [4], in test [5] and in [6] was more than 100 µM each time. For the same compound, the TGI in [7], in test [8], in test [9] and in test [10] was more than 100 µM each time.
With `CCN(CC)CCCNc1c2cc(OC)ccc2nc2cccc([N+](=O)[O-])c12`, the TGI in test [1] was 0.49 µM; in test [2] it was 0.192 µM; in test [3], 0.175 µM; in [4], 0.229 µM; in test [5] it was 0.344 µM; in test [6], 0.176 µM. Moreover, the TGI in [7] came to 0.32 µM; in test [8] it was 2.02 µM; in test [9], 0.061 µM; in test [10], 0.432 µM.
Regarding `O=C1CCCC1C(O)(C(F)(F)Cl)C(F)(F)Cl` (stereo not given), the TGI in [1], in [2], in test [3], in test [4], in test [5] and in test [6] was more than 10 µM each time. Further, the TGI in test [7], in [8], in [9] and in test [10] was more than 10 µM throughout.
On to `CCOC(=O)CCNC(=O)c1cc(C)cc2c1Oc1c(cc(C)cc1C(=O)NCCC(=O)OCC)S2`, for which the TGI in test [1], in test [2], in test [3], in test [4], in [5] and in test [6] was more than 100 µM in each case. In addition, the TGI in test [7], in test [8], in [9] and in test [10] was more than 100 µM in each case.
Regarding `O=C(CCCN1CCC(Nc2ccc(F)cc2)(c2nnnn2C2CCCCC2)CC1)c1ccc(F)cc1`, the TGI is 33.1 µM in test [1]; more than 100 µM in test [2]; 26.1 µM in [3]; 31.5 µM in [4]; 29 µM in [5]; 31.8 µM in test [6]. For the same compound, the TGI in test [7] was 40.7 µM; in test [8], 36 µM; in [9] it was more than 100 µM; in test [10], 29.2 µM.

As a reminder, the TGI is the concentration at which net growth stops. A high value points to less potent growth arrest.
